Laboratory results taken from publication PMC10463303 (Veterinary Research, 2023).
≈ marks a conversion by molar mass, not a printed value. Peptide text beside a SMILES is read from it.

Key:
Format in all cases: cell-based, Streptococcus suis serotype 2
Details in all cases: 18 h
SS2 strain P1/7 = assay: Antimicrobial activity assay (broth microdilution MIC, MBC by colony counting)
Protocol: (§1) Tryptic soy broth (TSB; Beijing Land Bridge Technology Co., ltd, China) with 10% fetal bovine serum (FBS; Zhejiang Tianhang Biotechnology Co., ltd, China) were used as bacterial growth media for antimicrobial activity assays and tryptic soy agar (TSA; Beijing Land Bridge Technology Co., ltd, China) plates containing 10% FBS were used for the colony counting assay. Bacteria were cultured at 37 °C for 18 h in TSB or TSA agar plates.
(§2) Antimicrobial activity of cathelicidins was performed using a broth microdilution assay. Briefly, bacteria were maintained in TSB medium with 10% FBS at 37 °C and grown to mid-logarithmic growth phase before being tested. Then, 50 μL of peptides (0 to 80 μM) in triplicate were mixed with an equal volume of bacterial suspension (2 × 10^6 CFU/mL) in 96-well plates and incubated for 18 h at 37 ℃. The minimum inhibitory concentration (MIC) was defined as the lowest concentration of ones at which there was no visible bacteria growth. The minimum bactericidal concentration (MBC) was determined by colony counting. Fifty microliter mixed medium were removed from wells in which visible bacteria growth was not observed and then were plated out on TSA plates. After overnight culture at 37 °C, survival bacteria were counted.

[1] = tested on: SS2 strains including SC19 and P1/7
Protocol: as §1, §2

SS2 strain SC19 = tested on: SS2 strain SC19
Protocol: as §1, §2

[2] = broth microdilution, TSB + 10% FBS, peptides 0 to 80 μM in triplicate, bacterial suspension 2 × 10^6 CFU/mL, 37 °C, no visible growth

SMILES	MBC toward P1/7 (SS2 strain P1/7)	MBC (anti-SS2 activity) [1]	MIC (anti-SS2 activity) [1]	MBC toward SC19 (SS2 strain SC19)	MIC toward P1/7 (SS2 strain P1/7; [2])	MIC toward SC19 (SS2 strain SC19; [2])
CC[C@H](C)[C@H](NC(=O)[C@H](CCCCN)NC(=O)[C@H](CCCNC(=N)N)NC(=O)[C@H](CC(C)C)NC(=O)[C@H](Cc1ccccc1)NC(=O)[C@H](CCCNC(=N)N)NC(=O)CNC(=O)[C@H](Cc1ccccc1)NC(=O)[C@@H](N)CCCNC(=N)N)C(=O)N[C@@H](CCCNC(=N)N)C(=O)N[C@@H](CCCNC(=N)N)C(=O)N[C@@H](Cc1ccccc1)C(=O)N[C@@H](CCCNC(=N)N)C(=O)N1CCC[C@H]1C(=O)N[C@@H](CCCCN)C(=O)N[C@H](C(=O)N[C@H](C(=O)N[C@H](C(=O)N[C@H](C(=O)N[C@H](C(=O)N[C@@H](CCC(N)=O)C(=O)NCC(=O)N[C@@H](CO)C(=O)N[C@@H](C)C(=O)N[C@@H](CCCNC(=N)N)C(=O)N[C@@H](Cc1ccccc1)C(=O)O)[C@@H](C)CC)[C@@H](C)O)[C@@H](C)CC)[C@@H](C)O)C(C)C [CATH-2] (H-RFGRFLRKIRRFRPKVTITIQGSARF-OH)	10 µM (≈ 32.1 µg/mL)	10 to 20 µM	10 to 20 µM	20 µM (≈ 64.2 µg/mL)	–	–
CC[C@H](C)[C@H](NC(=O)CNC(=O)[C@H](C)NC(=O)[C@H](C)NC(=O)[C@@H](NC(=O)[C@@H](NC(=O)[C@H](CC(N)=O)NC(=O)[C@@H](NC(=O)[C@H](C)NC(=O)[C@@H](NC(=O)[C@@H]1CCCN1C(=O)[C@@H](NC(=O)[C@H](CC(C)C)NC(=O)[C@@H]1CCCN1C(=O)[C@H](Cc1c[nH]c2ccccc12)NC(=O)[C@H](Cc1ccccc1)NC(=O)[C@H](CCCNC(=N)N)NC(=O)[C@H](CCCCN)NC(=O)[C@@H](NC(=O)[C@@H](N)CCCNC(=N)N)C(C)C)C(C)C)C(C)C)[C@@H](C)CC)[C@@H](C)O)C(C)C)C(=O)N[C@@H](CC(N)=O)C(=O)N[C@@H](CC(C)C)C(=O)N[C@@H](Cc1ccc(O)cc1)C(=O)N[C@@H](CCCCN)C(=O)N[C@@H](C)C(=O)N[C@H](C(=O)N[C@@H](CCCNC(=N)N)C(=O)N[C@@H](CCCNC(=N)N)C(=O)N[C@@H](CCCCN)C(=O)O)[C@@H](C)CC [CATH-3] (H-RVKRFWPLVPVAINTVAAGINLYKAIRRK-OH)	10 µM (≈ 33.5 µg/mL)	10 to 20 µM	10 to 20 µM	20 µM (≈ 67 µg/mL)	–	–
CC[C@H](C)[C@H](NC(=O)CNC(=O)[C@H](CC(N)=O)NC(=O)[C@H](CC(C)C)NC(=O)[C@H](Cc1c[nH]c2ccccc12)NC(=O)[C@H](CCC(=O)O)NC(=O)[C@H](Cc1c[nH]c2ccccc12)NC(=O)[C@@H](NC(=O)[C@H](CCCNC(=N)N)NC(=O)[C@@H](NC(=O)[C@H](Cc1c[nH]c2ccccc12)NC(=O)[C@H](Cc1c[nH]c2ccccc12)NC(=O)[C@H](CC(N)=O)NC(=O)[C@H](CCCNC(=N)N)NC(=O)[C@@H](NC(=O)[C@@H]1CCCN1)[C@@H](C)CC)[C@@H](C)CC)[C@@H](C)CC)C(=O)N[C@@H](CCCNC(=N)N)C(=O)N[C@@H](CCCCN)C(=O)N[C@@H](CCCNC(=N)N)C(=O)N[C@@H](CC(C)C)C(=O)N[C@@H](CCCNC(=N)N)C(=O)N[C@@H](CCC(N)=O)C(=O)N[C@@H](CCCNC(=N)N)C(=O)N[C@@H](CO)C(=O)N1CCC[C@H]1C(=O)N[C@@H](Cc1ccccc1)C(=O)N[C@@H](Cc1ccc(O)cc1)C(=O)N[C@H](C(=O)N[C@@H](CCCNC(=N)N)C(=O)NCC(=O)N[C@@H](Cc1c[nH]cn1)C(=O)N[C@@H](CC(C)C)C(=O)N[C@@H](CC(N)=O)C(=O)N[C@H](C(=O)N[C@H](C(=O)N[C@@H](CO)C(=O)N[C@H](C(=O)N1CCC[C@H]1C(=O)N[C@@H](CCC(N)=O)C(=O)N1CCC[C@H]1C(=O)O)[C@@H](C)O)[C@@H](C)O)C(C)C)C(C)C [CATH-B1] (H-PIRNWWIRIWEWLNGIRKRLRQRSPFYVRGHLNVTSTPQP-OH)	> 40 µM	> 40 µM	> 40 µM	> 40 µM	–	–
CC[C@H](C)[C@H](NC(=O)[C@H](CCCCN)NC(=O)[C@H](CCC(=O)O)NC(=O)CNC(=O)CNC(=O)[C@H](CCCCN)NC(=O)[C@H](CCCNC(=N)N)NC(=O)[C@H](CC(C)C)NC(=O)[C@H](CC(C)C)NC(=O)CN)C(=O)NCC(=O)N[C@@H](CCC(=O)O)C(=O)N[C@@H](CCCCN)C(=O)N[C@@H](CC(C)C)C(=O)N[C@@H](CCCCN)C(=O)N[C@@H](CCCCN)C(=O)N[C@H](C(=O)NCC(=O)N[C@@H](CCC(N)=O)C(=O)N[C@@H](CCCCN)C(=O)N[C@H](C(=O)N[C@@H](CCCCN)C(=O)N[C@@H](CC(N)=O)C(=O)N[C@@H](Cc1ccccc1)C(=O)N[C@@H](Cc1ccccc1)C(=O)N[C@@H](CCC(N)=O)C(=O)N[C@@H](CCCCN)C(=O)N[C@@H](CC(C)C)C(=O)N[C@H](C(=O)N1CCC[C@H]1C(=O)N[C@@H](CCC(N)=O)C(=O)N1CCC[C@H]1C(=O)N[C@@H](CCC(=O)O)C(=O)N[C@@H](CCC(N)=O)C(=O)O)C(C)C)[C@@H](C)CC)[C@@H](C)CC [CRAMP] (H-GLLRKGGEKIGEKLKKIGQKIKNFFQKLVPQPEQ-OH)	> 40 µM	> 40 µM	> 40 µM	> 40 µM	40 µM	40 µM
CC[C@H](C)[C@H](NC(=O)[C@H](CCCCN)NC(=O)[C@H](CCCCN)NC(=O)[C@H](CC(C)C)NC(=O)[C@H](CCCNC(=N)N)NC(=O)[C@H](CCCCN)NC(=O)[C@H](CCCNC(=N)N)NC(=O)[C@@H](NC(=O)[C@H](CCCCN)NC(=O)[C@H](CCCCN)NC(=O)[C@H](CCCNC(=N)N)NC(=O)[C@H](CC(C)C)NC(=O)[C@H](CCCNC(=N)N)NC(=O)[C@H](CCCNC(=N)N)NC(=O)[C@H](Cc1ccccc1)NC(=O)[C@H](CCCNC(=N)N)NC(=O)CN)[C@@H](C)O)C(=O)NCC(=O)N[C@@H](CCCCN)C(=O)N[C@H](C(=O)N[C@@H](CC(C)C)C(=O)N[C@@H](CCCCN)C(=O)N[C@@H](Cc1c[nH]c2ccccc12)C(=O)N[C@H](C(=O)N1CCC[C@H]1C(=O)N1CCC[C@H]1C(=O)N[C@H](C(=O)N[C@H](C(=O)NCC(=O)N[C@@H](CO)C(=O)N[C@H](C(=O)N1CCC[C@H]1C(=O)N[C@@H](CC(C)C)C(=O)NCC(=O)N[C@@H](CS)C(=O)NCC(=O)O)[C@@H](C)CC)C(C)C)[C@@H](C)CC)[C@@H](C)CC)C(C)C [PMAP-36] (H-GRFRRLRKKTRKRLKKIGKVLKWIPPIVGSIPLGCG-OH)	> 40 µM	> 40 µM	> 40 µM	40 µM (≈ 166 µg/mL)	–	–
CC[C@H](C)[C@H](NC(=O)[C@H](CCCNC(=N)N)NC(=O)[C@@H]1CCCN1C(=O)[C@@H]1CCCN1C(=O)[C@H](CC(C)C)NC(=O)[C@H](CCCNC(=N)N)NC(=O)[C@@H]1CCCN1C(=O)[C@@H]1CCCN1C(=O)[C@H](Cc1ccccc1)NC(=O)[C@H](Cc1ccccc1)NC(=O)[C@@H]1CCCN1C(=O)[C@@H]1CCCN1C(=O)[C@@H]1CCCN1C(=O)[C@H](CCCNC(=N)N)NC(=O)[C@@H]1CCCN1C(=O)[C@H](CCCNC(=N)N)NC(=O)[C@@H]1CCCN1C(=O)[C@H](CC(C)C)NC(=O)[C@H](Cc1ccc(O)cc1)NC(=O)[C@@H]1CCCN1C(=O)[C@@H]1CCCN1C(=O)[C@H](CCCNC(=N)N)NC(=O)[C@@H]1CCCN1C(=O)[C@H](CCCNC(=N)N)NC(=O)[C@H](CCCNC(=N)N)NC(=O)[C@@H](N)CCCNC(=N)N)C(=O)N1CCC[C@H]1C(=O)N1CCC[C@H]1C(=O)NCC(=O)N[C@@H](Cc1ccccc1)C(=O)N1CCC[C@H]1C(=O)N1CCC[C@H]1C(=O)N[C@@H](CCCNC(=N)N)C(=O)N[C@@H](Cc1ccccc1)C(=O)N1CCC[C@H]1C(=O)N1CCC[C@H]1C(=O)N[C@@H](CCCNC(=N)N)C(=O)N[C@@H](Cc1ccccc1)C(=O)N1CCC[C@H]1C(=O)O [PR-39] (H-RRRPRPPYLPRPRPPPFFPPRLPPRIPPGFPPRFPPRFP-OH)	> 40 µM	> 40 µM	> 40 µM	> 40 µM	–	–
